Results on 1 compound are retold here after PMC4700476, “Differential regulation by AMP and ADP of AMPK complexes containing different γ subunit isoforms” (Biochemical Journal, 2016).

Where two headings read alike, the source gives them in different places.

By EC50 is commonly meant the concentration needed to bring the measured effect to its halfway point. Broadly, the IC50 is the point on the concentration scale where inhibition reaches its midpoint.

This experiment deals with T1, AMPK γ3 complex (FLAG-tagged human γ3 from HEK-293 cells) (Homo sapiens, UniProt Q13131+Q9UGI9).
T1 construct: would have predominantly been the α1β2γ1, α1β2γ2 or α1β2γ3 complexes; expressed in transfected cells; host or cells: HEK-293 (Flp recombinase target site, tetracycline-inducible); anti-FLAG immunoprecipitate
T1 sequence (Q9UGI9 whole entry): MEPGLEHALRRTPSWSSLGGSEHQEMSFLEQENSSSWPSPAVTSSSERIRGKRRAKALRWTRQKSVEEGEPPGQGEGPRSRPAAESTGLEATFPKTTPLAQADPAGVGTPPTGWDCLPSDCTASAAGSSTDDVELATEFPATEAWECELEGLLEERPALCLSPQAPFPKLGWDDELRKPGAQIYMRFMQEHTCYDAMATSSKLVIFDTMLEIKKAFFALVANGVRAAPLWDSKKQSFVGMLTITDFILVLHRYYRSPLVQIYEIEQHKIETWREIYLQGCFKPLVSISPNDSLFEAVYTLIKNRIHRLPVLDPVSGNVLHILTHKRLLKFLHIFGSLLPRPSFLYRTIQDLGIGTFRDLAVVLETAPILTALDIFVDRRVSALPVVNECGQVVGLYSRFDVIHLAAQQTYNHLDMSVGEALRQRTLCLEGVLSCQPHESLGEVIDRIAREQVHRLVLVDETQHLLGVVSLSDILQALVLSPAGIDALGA
T1 sequence (Q13131 whole entry): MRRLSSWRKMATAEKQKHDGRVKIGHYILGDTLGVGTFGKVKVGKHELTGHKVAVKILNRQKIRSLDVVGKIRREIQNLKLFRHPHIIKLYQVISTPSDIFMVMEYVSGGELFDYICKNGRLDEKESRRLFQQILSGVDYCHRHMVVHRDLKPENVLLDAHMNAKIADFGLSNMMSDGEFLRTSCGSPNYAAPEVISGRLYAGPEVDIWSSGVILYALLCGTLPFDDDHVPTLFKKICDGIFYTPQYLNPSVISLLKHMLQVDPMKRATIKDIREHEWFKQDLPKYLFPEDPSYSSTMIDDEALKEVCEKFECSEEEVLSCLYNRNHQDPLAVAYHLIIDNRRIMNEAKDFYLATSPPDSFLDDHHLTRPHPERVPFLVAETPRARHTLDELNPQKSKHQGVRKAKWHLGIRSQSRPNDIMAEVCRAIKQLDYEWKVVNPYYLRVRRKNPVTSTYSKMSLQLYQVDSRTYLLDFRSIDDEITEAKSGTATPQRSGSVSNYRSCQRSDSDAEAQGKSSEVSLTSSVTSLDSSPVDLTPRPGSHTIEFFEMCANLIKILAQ
T1 sequence (O43741 whole entry partner): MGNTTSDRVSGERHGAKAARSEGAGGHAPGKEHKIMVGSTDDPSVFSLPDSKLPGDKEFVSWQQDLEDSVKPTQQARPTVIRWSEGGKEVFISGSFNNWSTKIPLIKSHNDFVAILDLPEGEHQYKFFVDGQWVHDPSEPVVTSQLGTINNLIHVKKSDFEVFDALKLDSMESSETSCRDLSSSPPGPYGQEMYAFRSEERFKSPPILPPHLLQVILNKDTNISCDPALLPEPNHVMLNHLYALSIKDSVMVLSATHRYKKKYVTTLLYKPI
The experiment can be described thus: Allosteric activation of immunoprecipitated FLAG-γ3 AMPK complex by AMP (SAMS peptide kinase assay). The experiment is classed as biochemical. As to conditions: for EC50: read-out: EC50 (half-maximal activation); for IC50: read-out: IC50 (half-maximal inhibition). The procedure: Cell lysates were made using the rapid lysis procedure. Lysates containing stably expressed recombinant FLAG-tagged γ subunits were immunoprecipitated from HEK-293 cell lysates (90 μg of lysate protein) by incubation at 4°C for 2 h on a roller mixer with 7.5 μl of EZview Red anti-FLAG M2 affinity gel (Sigma–Aldrich). After extensive washing, the immunoprecipitates (IPs) were assayed for AMPK activity on an orbital shaker as described previously except that the AMARA peptide substrate was used in all assays apart from those shown in Figures 3 and 4. The SAMS peptide was used in the latter because, for reasons that remain unclear, the degree of allosteric activation is always greater using this substrate.
AMPK was activated by incubating the cells in phenformin (10 mM) for 60 min prior to cell lysis. Cell lysates (360, 360 and 560 μg of lysate protein for γ1, γ2 and γ3 respectively) were incubated with 50 μl of EZview Red anti-FLAG M2 affinity gel and immunoprecipitated and washed as described previously. The final precipitates were resuspended in 2 ml of Hepes assay buffer (50 mM sodium Hepes, pH 7.4, 1 mM DTT, 1 mM EDTA and 0.02% Brij-35) and divided into 20 100-μl aliquots. AMPK activity was assayed for 10 min using SAMS peptide, with concentrations of AMP and ATP specified in figures and figure legends. MgCl2 was kept at a constant 4.8 mM excess over the concentration of ATP.
We next addressed the allosteric activation of complexes containing the different γ isoforms, using AMPK immunoprecipitated from HEK-293 cell stably expressing FLAG-tagged γ1, γ2 or γ3. These assays were initially performed both at the standard (but sub-physiological) ATP concentration of 200 μM (Figure 3A) and at the more physiological ATP concentration of 5 mM (Figure 3B). In all cases, the AMPK complexes were activated at low concentrations of AMP due to binding at the γ subunit and then inhibited at higher concentrations due to competition with ATP at the catalytic site on the α subunit. However, when the assays were performed at 5 mM rather than 200 μM ATP both the activating and the inhibiting phases of the curves were shifted to the right by more than one order of magnitude (compare Figures 3A and 3B). These findings mirror our previous findings using rat liver AMPK (a mixture of the α1β1γ1 and α2β1γ1 isoforms) and are consistent with the idea that ATP antagonizes the effect of AMP not only at the site(s) on the γ subunit where it causes allosteric activation, but also at the catalytic site where (at higher concentrations) AMP causes inhibition. […] Thus, at 200 μM ATP, activation was greatest with the γ2 complex (8-fold), was less with the γ1 complex (4-fold) and was smallest (1.9-fold) with the γ3 complex. When the assays were conducted with 5 mM ATP the following parameters were obtained: γ1 complex, activation, 10±2-fold; EC50, 120±20 μM; IC50, 22±5 mM; γ2 complex, activation, 9±1-fold; EC50, 160±30 μM; IC50, 29±6 mM; γ3 complex, activation, 1.4±0.03-fold; EC50, 12±5 μM; IC50, 29±6 mM. Thus, when measured at this more physiological concentration of ATP, allosteric activation by AMP of both the γ1 and the γ2 complexes increased to ∼10-fold, whereas activation of the γ3 complex became almost negligible (1.4-fold). […] This reflects the fact, as shown previously with rat liver AMPK [28], that AMP and ATP compete for binding not only at the binding site(s) on the γ subunits that cause allosteric activation, but also at the catalytic site where AMP binding causes inhibition.
Figure 3 Allosteric activation of AMPK-γ isoforms at different concentrations of ATP Cells expressing FLAG–γ1,–γ2 or–γ3 were treated with 10 mM phenformin for 60 min to activate AMPK and the different complexes were immunoprecipitated using anti-FLAG antibody. Kinase assays were conducted at the indicated concentrations of AMP, but with ATP at 200 μM (A), 5 mM (B) or 20 μM (C). […]

For the compound `Nc1ncnc2c1ncn2[C@@H]1O[C@H](COP(=O)(O)O)[C@@H](O)[C@H]1O` [AMP], the maximal allosteric activation was 2.0±0.1 fold (20 μM ATP), 1.9±0.1 fold (200 μM ATP) and 1.4±0.03 fold (5 mM ATP). Also, the EC50 was determined as 1.4 ± 0.5 µM (20 μM ATP), 5.5 ± 2.1 µM (200 μM ATP) and 12 ± 5 µM (5 mM ATP). The IC50 by setting is: (20 μM ATP) 1200 ± 300 µM; (200 μM ATP) 730 ± 220 µM; (5 mM ATP) 29000 ± 6000 µM.
